Measurements from US20260083708A1, “IL-17 MODULATORS AND USES THEREOF” (NNOCARE PHARMA INC., priority 2024, published 2026).
pIC50: −log10 of the molar value.

Tests used:
[1] = target: T1, IL-17AA and IL-17RA (Homo sapiens, UniProt Q16552); assay: Competitive inhibition of human IL-17AA and IL-17RA binding (HTRF); conditions: recombinant IL-17AA (His-tag) and IL-17RA (hFc-tag); read-out: IC50 for Inhibiting IL-AA/IL-RA Binding
T1 construct: purchased Sino Biological 12047-H07B (IL-17AA); 10895-H02H (IL-17RA)
T1 sequence (Q16552 24-155): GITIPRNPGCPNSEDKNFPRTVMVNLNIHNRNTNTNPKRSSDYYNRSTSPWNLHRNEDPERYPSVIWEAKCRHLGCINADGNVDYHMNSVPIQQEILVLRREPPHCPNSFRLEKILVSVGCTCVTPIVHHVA
Procedure, shortened: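 His-IL-17AA (1 nM) premixed 1 h with anti-His-Tb (0.4 nM), and Fc-IL-17RA (1 nM) with anti-IgG-d2 (1 μg/mL); these are pre-mix levels. Compounds, diluted from 10 μM, preincubated 2 h RT with IL-17AA mix; IL-17RA mix then added, 20 min. 665/615 ratio vs no-compound and no-IL-17AA controls; IC50 by 4-parameter fit.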

[2] = system: IL-17AA-induced IL-17 signaling pathway; assay: Inhibition of IL-17AA-induced IL-17 signaling pathway in HEK-Blue IL-17 reporter cells (SEAP); type: cell-based; conditions: Homo sapiens; HEK-Blue IL-17 cells, IL-17AA 2.5 ng/mL, 20 hours; read-out: IC50 for Inhibiting IL-AA Signaling
Procedure, shortened: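 HEK-Blue IL-17 cells (HEK293 expressing human IL-17RA/RC, ACT1 and NF-κB/AP-1-driven SEAP), 10,000/well, pre-incubated with compound (serial dilution from 10 μM) for 1 h at 37 °C, then stimulated with IL-17AA at 2.5 ng/mL final for 20 h. SEAP in supernatant read with Quanti-Blue at 620 nm; IC50 by 4-parameter fit.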

[3] = system: IL-17AF-induced IL-17 signaling pathway; assay: Inhibition of IL-17AF-induced IL-17 signaling pathway; type: cell-based; conditions: Homo sapiens; IL-17AF used instead of IL-17AA; read-out: IC50 for Inhibiting IL-AF Signaling
Procedure, shortened: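 HEK293-derived HEK-Blue IL-17 cells (IL-17RA/RC, ACT1, NF-κB/AP-1-driven SEAP) preincubated 1 hour at 37° C with serially diluted compound from 10 μM, then stimulated with IL-17AF for 20 hours. SEAP read colorimetrically at 620 nm; IC50 from 4-parameter fit of % inhibition.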

pIC50 [1] | pIC50 [2] | pIC50 [3] | Compound
8.96 | 8.21 | 8.09 | [2H]C([2H])([2H])C([2H])([2H])C(=O)N[C@@H](c1ncnn1CC1CC1)[C@@H](C)c1ccc(NC(=O)[C@@H](NC(=O)c2nonc2C)C(C2CC2)C2CC2)c(F)c1 [Compound 75, N-((S)-1,1-dicyclopropyl-3-((4-((1R,2S)-1-(1-(cyclopropylmethyl)-1H-1,2,4-triazol-5-yl)-1-(propanamido-2,2,3,3,3-d5)propan-2-yl)-2-fluorophenyl)amino)-3-oxopropan-2-yl)-4-methyl-1,2,5-oxadiazole-3-carboxamide]
8.25 | 7.96 | 7.49 | CCC(=O)N[C@@H](c1ncnn1CC1CC1)[C@@H](C)c1ccc(NC(=O)[C@@H](NC(=O)c2ccnn2CC)C2CCC(=C(F)F)CC2)c(F)c1 (stereo partly drawn) [Compound 77, N-((S)-2-((4-((1R,2S)-1-(1-(cyclopropylmethyl)-1H-1,2,4-triazol-5-yl)-1-propionamidopropan-2-yl)-2-fluorophenyl)amino)-1-(4-(difluoromethylene)cyclohexyl)-2-oxoethyl)-1-ethyl-1H-pyrazole-5-carboxamide]
7.32 | 6.42 | 6.29 | CCC(=O)N[C@@H](c1ncnn1CC1CC1)[C@@H](C)c1ccc(NC(=O)[C@@H](NC(=O)c2ccnn2CC)C2CCC3(CC2)CC(F)(F)C3)c(F)c1 [Compound 78, N-((S)-2-((4-((1R,2S)-1-(1-(cyclopropylmethyl)-1H-1,2,4-triazol-5-yl)-1-propionamidopropan-2-yl)-2-fluorophenyl)amino)-1-(2,2-difluorospiro[3.5]nonan-7-yl)-2-oxoethyl)-1-ethyl-1H-pyrazole-5-carboxamide]
8.22 | 7.72 | 7.44 | CCC(=O)N[C@@H](c1ncnn1CCNC1CC1)[C@@H](C)c1ccc(NC(=O)[C@@H](NC(=O)c2nonc2C)C(C2CC2)C2CC2)c(F)c1 [Compound 79, N-((S)-1,1-dicyclopropyl-3-((4-((1R,2S)-1-(1-(2-(cyclopropylamino)ethyl)-1H-1,2,4-triazol-5-yl)-1-propionamidopropan-2-yl)-2-fluorophenyl)amino)-3-oxopropan-2-yl)-4-methyl-1,2,5-oxadiazole-3-carboxamide]
7.74 | 7.49 | 7.31 | CCC(=O)N[C@@H](c1ncn(CCNC2CC2)n1)[C@@H](C)c1ccc(NC(=O)[C@@H](NC(=O)c2nonc2C)C(C2CC2)C2CC2)c(F)c1 [Compound 80, N—((S)-1,1-dicyclopropyl-3-((4-((1R,2S)-1-(1-(2-(cyclopropylamino)ethyl)-1H-1,2,4-triazol-3-yl)-1-propionamidopropan-2-yl)-2-fluorophenyl)amino)-3-oxopropan-2-yl)-4-methyl-1,2,5-oxadiazole-3-carboxamide]
8.35 | 8.03 | 7.80 | CCC(=O)N[C@@H](c1ncn(CC2CC2)n1)[C@@H](C)c1ccc(NC(=O)[C@@H](NC(=O)c2nonc2C)C(C2CC2)C2CC2)c(F)c1 [Compound 81, N-((S)-1,1-dicyclopropyl-3-((4-((1R,2S)-1-(1-(cyclopropylmethyl)-1H-1,2,4-triazol-3-yl)-1-propionamidopropan-2-yl)-2-fluorophenyl)amino)-3-oxopropan-2-yl)-4-methyl-1,2,5-oxadiazole-3-carboxamide]
8.25 | 8.00 | 8.08 | CCC(=O)N[C@@H](c1ncccc1CC1CC1)[C@@H](C)c1ccc(NC(=O)[C@@H](NC(=O)c2ccnn2CC)C(C2CC2)C2CC2)c(F)c1 [Compound 82, N-((S)-1,1-dicyclopropyl-3-((4-((1R,2S)-1-(3-(cyclopropylmethyl)pyridin-2-yl)-1-propionamidopropan-2-yl)-2-fluorophenyl)amino)-3-oxopropan-2-yl)-1-ethyl-1H-pyrazole-5-carboxamide]
7.68 | 7.35 | 7.41 | CCC(=O)N[C@H](c1ncnn1CC1CC1)[C@@H](C)c1ccc(NC(=O)[C@@H](NC(=O)c2nonc2C)C(C2CC2)C2CC2)c(F)c1 [Compound 83, N-((S)-1,1-dicyclopropyl-3-((4-((1S,2S)-1-(1-(cyclopropylmethyl)-1H-1,2,4-triazol-5-yl)-1-propionamidopropan-2-yl)-2-fluorophenyl)amino)-3-oxopropan-2-yl)-4-methyl-1,2,5-oxadiazole-3-carboxamide]
7.51 | 7.20 | 7.07 | CCC(=O)N[C@@H](c1ncnn1CC1CC1)[C@@H](C)c1ccc(NC(=O)[C@H](NC(=O)c2nonc2C)C(C2CC2)C2CC2)c(F)c1 [Compound 84, N-((R)-1,1-dicyclopropyl-3-((4-((1R,2S)-1-(1-(cyclopropylmethyl)-1H-1,2,4-triazol-5-yl)-1-propionamidopropan-2-yl)-2-fluorophenyl)amino)-3-oxopropan-2-yl)-4-methyl-1,2,5-oxadiazole-3-carboxamide]
6.78 | 6.27 | 6.09 | [2H]C([2H])([2H])n1nccc1C(=O)N[C@@H](C(=O)Nc1ccc([C@H](C)[C@@H](NC(=O)CC)c2ncnn2CC2CC2)cc1F)C(C1CC1)C1CC1 [Compound 85, N-((R)-1,1-dicyclopropyl-3-((4-((1R,2S)-1-(1-(cyclopropylmethyl)-1H-1,2,4-triazol-5-yl)-1-propionamidopropan-2-yl)-2-fluorophenyl)amino)-3-oxopropan-2-yl)-1-(methyl-d3)-1H-pyrazole-5-carboxamide]
7.64 | 6.84 | 6.64 | [2H]C([2H])([2H])n1ccc(C(=O)N[C@H](C(=O)Nc2ccc([C@H](C)[C@@H](NC(=O)CC)c3ncnn3CC3CC3)cc2F)C(C2CC2)C2CC2)n1 [Compound 86, N-((S)-1,1-dicyclopropyl-3-((4-((1R,2S)-1-(1-(cyclopropylmethyl)-1H-1,2,4-triazol-5-yl)-1-propionamidopropan-2-yl)-2-fluorophenyl)amino)-3-oxopropan-2-yl)-1-(methyl-d3)-1H-pyrazole-3-carboxamide]
5.70 | < 5.70 | < 5.70 | [2H]C([2H])([2H])n1nccc1C(=O)N[C@H](C(=O)Nc1ccc([C@H](C)[C@H](NC(=O)CC)c2ncnn2CC2CC2)cc1F)C(C1CC1)C1CC1 [Compound 87, N-((S)-1,1-dicyclopropyl-3-((4-((1S,2S)-1-(1-(cyclopropylmethyl)-1H-1,2,4-triazol-5-yl)-1-propionamidopropan-2-yl)-2-fluorophenyl)amino)-3-oxopropan-2-yl)-1-(methyl-d3)-1H-pyrazole-5-carboxamide]
7.64 | 7.38 | 7.01 | CCn1nccc1C(=O)N[C@H](C(=O)Nc1ccc([C@H](C)[C@@H](NC(=O)COC)c2nnc3cnccn23)cc1F)C(C1CC1)C1CC1 [Compound 88, N-((S)-1-((4-((1R,2S)-1-([1,2,4]triazolo[4,3-a]pyrazin-3-yl)-1-(2-methoxyacetamido)propan-2-yl)-2-fluorophenyl)amino)-3,3-dicyclopropyl-1-oxopropan-2-yl)-1-ethyl-1H-pyrazole-5-carboxamide]
